From PMC8896928, “Preparation, Characterization, and Preliminary Imaging Study of [^188Re]Re-Ibandronate as a Novel Theranostic Radiopharmaceutical for Bone Metastasis” (Contrast Media & Molecular Imaging, 2022)

How the values were obtained:
[1] = Biodistribution in normal mice; type: in vivo, Kunming mice
Protocol: Twenty Kunming mice (originated from Swiss albino mice and introduced into Kunming, China.) were randomly divided into five groups (equal number of males and females). Each group was injected with 3.7 MBq [^188Re]Re-IBA. […] The blood and important tissue and organ samples were collected to measure the radioactivity count by γ counter. Following the time attenuation correction, the percentage injection dose rate per gram of tissue (%ID/g) was calculated at each time point. The result is expressed as mean ± standard deviation ( χ¯ ± s). The in vivo distribution of [^188Re]ReO4^− was studied using the aforementioned method.

[2] = Bone imaging of New Zealand rabbits (SPECT); conditions: New Zealand rabbit, 100 MBq
Protocol: The New Zealand rabbit was anesthetized by intraperitoneal injection of 2% pentobarbital sodium (40 mg/kg). Then, 100 MBq [^188Re]Re-IBA was injected. Bone imaging was performed at different time points (acquisition equipment: American GE Infinia T4 double probe single-photon emission computed tomography, high energy collimator; scanning parameters: energy peak: 155 keV, posture: supine position, matrix: 128 × 128, and window width: ±10%). Following image acquisition, the images were processed by using the software of the postprocessing workstation.

CCCCCN(C)CCC1(O)P(=O)(O)[O][188Re]2([OH])([OH])([O]P1(=O)O)[O]P(=O)(O)C(O)(CCN(C)CCCCC)P(=O)(O)[O]2 (stereo not shown) [[^188Re]Re-IBA]
%ID/g Blood ([1]; 1 h): 1.869 ± 0.665 %ID/g | %ID/g Brain ([1]; 1 h): 0.072 ± 0.023 %ID/g | %ID/g Femur ([1]; 1 h): 5.989 ± 1.680 %ID/g | %ID/g Gonad ([1]; 1 h): 0.878 ± 0.426 %ID/g | %ID/g Heart ([1]; 1 h): 0.488 ± 0.179 %ID/g | %ID/g Kidney ([1]; 1 h): 5.894 ± 1.648 %ID/g | %ID/g Liver ([1]; 1 h): 1.100 ± 0.165 %ID/g | %ID/g Lung ([1]; 1 h): 1.297 ± 0.661 %ID/g | %ID/g Muscle ([1]; 1 h): 0.550 ± 0.251 %ID/g | %ID/g Small intestine ([1]; 1 h): 0.898 ± 0.494 %ID/g | %ID/g Spleen ([1]; 1 h): 0.952 ± 0.336 %ID/g | %ID/g Stomach ([1]; 1 h): 2.928 ± 0.851 %ID/g | %ID/g Thyroid gland ([1]; 1 h): 0.594 ± 0.201 %ID/g | Femur/heart radioactivity ratio ([1]; 1 h): 12.278 | Femur/liver radioactivity ratio ([1]; 1 h): 5.443 | Femur/muscle radioactivity ratio ([1]; 1 h): 10.880 | %ID/g Blood ([1]; 3 h): 0.785 ± 0.220 %ID/g | %ID/g Brain ([1]; 3 h): 0.056 ± 0.010 %ID/g | %ID/g Femur ([1]; 3 h): 7.105 ± 1.901 %ID/g | %ID/g Gonad ([1]; 3 h): 0.611 ± 0.095 %ID/g | %ID/g Heart ([1]; 3 h): 0.293 ± 0.118 %ID/g | %ID/g Kidney ([1]; 3 h): 3.140 ± 0.799 %ID/g | %ID/g Liver ([1]; 3 h): 0.794 ± 0.133 %ID/g | %ID/g Lung ([1]; 3 h): 0.784 ± 0.196 %ID/g | %ID/g Muscle ([1]; 3 h): 0.344 ± 0.143 %ID/g | %ID/g Small intestine ([1]; 3 h): 0.597 ± 0.214 %ID/g | %ID/g Spleen ([1]; 3 h): 0.475 ± 0.135 %ID/g | %ID/g Stomach ([1]; 3 h): 2.801 ± 0.560 %ID/g | %ID/g Thyroid gland ([1]; 3 h): 0.449 ± 0.171 %ID/g | Femur/heart radioactivity ratio ([1]; 3 h): 24.214 | Femur/liver radioactivity ratio ([1]; 3 h): 8.949 | Femur/muscle radioactivity ratio ([1]; 3 h): 20.664 | %ID/g Blood ([1]; 6 h): 0.496 ± 0.207 %ID/g | %ID/g Brain ([1]; 6 h): 0.045 ± 0.011 %ID/g | %ID/g Femur ([1]; 6 h): 7.724 ± 2.292 %ID/g | %ID/g Gonad ([1]; 6 h): 0.303 ± 0.141 %ID/g | %ID/g Heart ([1]; 6 h): 0.199 ± 0.049 %ID/g | %ID/g Kidney ([1]; 6 h): 2.763 ± 0.731 %ID/g | %ID/g Liver ([1]; 6 h): 0.526 ± 0.087 %ID/g | %ID/g Lung ([1]; 6 h): 0.506 ± 0.104 %ID/g | %ID/g Muscle ([1]; 6 h): 0.220 ± 0.124 %ID/g | %ID/g Small intestine ([1]; 6 h): 0.608 ± 0.192 %ID/g | %ID/g Spleen ([1]; 6 h): 0.296 ± 0.108 %ID/g | %ID/g Stomach ([1]; 6 h): 1.741 ± 0.368 %ID/g | %ID/g Thyroid gland ([1]; 6 h): 0.399 ± 0.082 %ID/g | Femur/heart radioactivity ratio ([1]; 6 h): 38.835 | Femur/liver radioactivity ratio ([1]; 6 h): 14.694 | Femur/muscle radioactivity ratio ([1]; 6 h): 35.182 | %ID/g Blood ([1]; 24 h): 0.058 ± 0.013 %ID/g | %ID/g Brain ([1]; 24 h): 0.024 ± 0.013 %ID/g | %ID/g Femur ([1]; 24 h): 6.177 ± 2.163 %ID/g | %ID/g Gonad ([1]; 24 h): 0.059 ± 0.032 %ID/g | %ID/g Heart ([1]; 24 h): 0.045 ± 0.012 %ID/g | %ID/g Kidney ([1]; 24 h): 0.913 ± 0.173 %ID/g | %ID/g Liver ([1]; 24 h): 0.122 ± 0.042 %ID/g | %ID/g Lung ([1]; 24 h): 0.138 ± 0.037 %ID/g | %ID/g Muscle ([1]; 24 h): 0.051 ± 0.020 %ID/g | %ID/g Small intestine ([1]; 24 h): 0.078 ± 0.013 %ID/g | %ID/g Spleen ([1]; 24 h): 0.189 ± 0.052 %ID/g | %ID/g Stomach ([1]; 24 h): 0.098 ± 0.036 %ID/g | %ID/g Thyroid gland ([1]; 24 h): 0.115 ± 0.036 %ID/g | Femur/heart radioactivity ratio ([1]; 24 h): 137.083 | Femur/liver radioactivity ratio ([1]; 24 h): 50.645 | Femur/muscle radioactivity ratio ([1]; 24 h): 121.910 | %ID/g Blood ([1]; 48 h): 0.031 ± 0.009 %ID/g | %ID/g Brain ([1]; 48 h): 0.009 ± 0.002 %ID/g | %ID/g Femur ([1]; 48 h): 5.239 ± 2.029 %ID/g | %ID/g Gonad ([1]; 48 h): 0.029 ± 0.009 %ID/g | %ID/g Heart ([1]; 48 h): 0.019 ± 0.010 %ID/g | %ID/g Kidney ([1]; 48 h): 0.399 ± 0.153 %ID/g | %ID/g Liver ([1]; 48 h): 0.038 ± 0.020 %ID/g | %ID/g Lung ([1]; 48 h): 0.040 ± 0.020 %ID/g | %ID/g Muscle ([1]; 48 h): 0.016 ± 0.005 %ID/g | %ID/g Small intestine ([1]; 48 h): 0.033 ± 0.010 %ID/g | %ID/g Spleen ([1]; 48 h): 0.046 ± 0.009 %ID/g | %ID/g Stomach ([1]; 48 h): 0.047 ± 0.019 %ID/g | %ID/g Thyroid gland ([1]; 48 h): 0.070 ± 0.019 %ID/g | Femur/heart radioactivity ratio ([1]; 48 h): 270.814 | Femur/liver radioactivity ratio ([1]; 48 h): 136.914 | Femur/muscle radioactivity ratio ([1]; 48 h): 325.483 | Elimination route of most of the activity [2]: through the kidneys | Bone imaging, tracer distribution ([2]; 20 min after the injection): obvious accumulation in bones and mild tracer uptake in soft tissue
